Source: PubChem BioAssay (NCI)
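Following 48 hours of exposure in 96-well plates, responses at five concentrations were used to interpolate endpoints linearly. TGI denotes the concentration required for complete inhibition of growth.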

Experiments:
Assay in all cases: inhibition of tumour cell growth, NCI panel, 48 h
SF-295 CNS = system: SF-295 CNS
SN12C renal = system: SN12C renal
OVCAR-8 ovarian = system: OVCAR-8 ovarian
HOP-62 NSCLC = system: HOP-62 NSCLC
HL-60(TB) leukemia = system: HL-60(TB) leukemia
UACC-257 melanoma = system: UACC-257 melanoma
K-562 leukemia = system: K-562 leukemia
ACHN renal = system: ACHN renal
SK-MEL-5 melanoma = system: SK-MEL-5 melanoma
NCI-H522 lung = system: NCI-H522 lung
UO-31 renal = system: UO-31 renal
NCI-H23 lung = system: NCI-H23 lung
NCI-H460 lung = system: NCI-H460 lung
DMS 273 small cell lung = system: DMS 273 small cell lung
DMS 114 small cell lung = system: DMS 114 small cell lung
RPMI-8226 leukemia = system: RPMI-8226 leukemia
SNB-75 CNS = system: SNB-75 CNS
LOX IMVI melanoma = system: LOX IMVI melanoma
CCRF-CEM leukemia = system: CCRF-CEM leukemia
KM12 colon = system: KM12 colon
KM20L2 colon = system: KM20L2 colon
OVCAR-4 ovarian = system: OVCAR-4 ovarian
DLD-1 colon = system: DLD-1 colon
M19-MEL melanoma = system: M19-MEL melanoma
SK-MEL-2 melanoma = system: SK-MEL-2 melanoma
HCT-15 colon = system: HCT-15 colon
OVCAR-5 ovarian = system: OVCAR-5 ovarian
HCC-2998 colon = system: HCC-2998 colon
A549 NSCLC = system: A549 NSCLC
SK-MEL-28 melanoma = system: SK-MEL-28 melanoma
UACC-62 melanoma = system: UACC-62 melanoma
A498 renal = system: A498 renal
LXFL 529 NSCLC = system: LXFL 529 NSCLC
MOLT-4 leukemia = system: MOLT-4 leukemia
U251 CNS = system: U251 CNS
786-0 renal = system: 786-0 renal
SF-268 CNS = system: SF-268 CNS
HCT-116 colon = system: HCT-116 colon
SK-OV-3 ovarian = system: SK-OV-3 ovarian
RXF 393 renal = system: RXF 393 renal
M14 melanoma = system: M14 melanoma
EKVX NSCLC = system: EKVX NSCLC
SW-620 colon = system: SW-620 colon
SF-539 CNS = system: SF-539 CNS
IGROV1 ovarian = system: IGROV1 ovarian
SR leukemia = system: SR leukemia
NCI-H226 lung = system: NCI-H226 lung
HOP-92 NSCLC = system: HOP-92 NSCLC
TK-10 renal = system: TK-10 renal
MALME-3M melanoma = system: MALME-3M melanoma
COLO 205 colon = system: COLO 205 colon
CAKI-1 renal = system: CAKI-1 renal
SNB-19 CNS = system: SNB-19 CNS
HOP-18 NSCLC = system: HOP-18 NSCLC
HT29 colon = system: HT29 colon
SNB-78 CNS = system: SNB-78 CNS
OVCAR-3 ovarian = system: OVCAR-3 ovarian
RXF-631 renal = system: RXF-631 renal
XF 498 CNS = system: XF 498 CNS

Measured: TGI

C=C1CC[C@@H]2C(C)(C)CCC[C@@]2(C)[C@@H]1Cc1cc(O)ccc1O
14.5 µM: U251 CNS
5.18 µM: RXF 393 renal
11 µM: M19-MEL melanoma
4.67 µM: HL-60(TB) leukemia
3.9 µM: SF-539 CNS
10.6 µM: HOP-92 NSCLC
32.8 µM: KM20L2 colon
16.7 µM: K-562 leukemia
12.9 µM: SF-268 CNS
22.8 µM: UACC-62 melanoma
21.9 µM: SNB-19 CNS
15.9 µM: RPMI-8226 leukemia
19.4 µM: DMS 273 small cell lung
9.07 µM: MOLT-4 leukemia
7.14 µM: SNB-75 CNS
18.5 µM: OVCAR-3 ovarian
28.2 µM: SF-295 CNS
33.4 µM: NCI-H460 lung
3.66 µM: NCI-H522 lung
7.09 µM: NCI-H226 lung
12 µM: 786-0 renal
8.77 µM: TK-10 renal
30 µM: HOP-18 NSCLC
5.25 µM: UO-31 renal | SNB-78 CNS
6.04 µM: SK-OV-3 ovarian
22.2 µM: CAKI-1 renal
15.6 µM: SN12C renal
32.6 µM: HT29 colon
25.8 µM: HOP-62 NSCLC
5.35 µM: LOX IMVI melanoma
17.4 µM: MALME-3M melanoma
18.1 µM: DLD-1 colon
9.83 µM: SK-MEL-28 melanoma
31.4 µM: COLO 205 colon
12.3 µM: HCT-15 colon
24.3 µM: M14 melanoma
27.6 µM: A498 renal
6.39 µM: SK-MEL-2 melanoma
31.3 µM: OVCAR-5 ovarian
23.8 µM: SW-620 colon
15.1 µM: OVCAR-8 ovarian
6.68 µM: LXFL 529 NSCLC
3.72 µM: OVCAR-4 ovarian
19.7 µM: SK-MEL-5 melanoma
16.8 µM: HCT-116 colon
4.1 µM: DMS 114 small cell lung
28 µM: HCC-2998 colon
23 µM: A549 NSCLC
11.8 µM: ACHN renal
12.1 µM: SR leukemia
5.78 µM: UACC-257 melanoma
29 µM: EKVX NSCLC
18.7 µM: NCI-H23 lung
19.2 µM: KM12 colon
5.23 µM: CCRF-CEM leukemia
5.65 µM: IGROV1 ovarian

O=[N+]([O-])C1C2C=CC(C2)[C@H]1c1ccccc1Cl (stereo partly specified)
97.7 µM: UO-31 renal
92.2 µM: NCI-H226 lung
> 10 µM: HOP-62 NSCLC | OVCAR-4 ovarian | CAKI-1 renal
> 88.2 µM: OVCAR-5 ovarian
> 75.6 µM: HOP-92 NSCLC
> 31.6 µM: NCI-H522 lung | UACC-62 melanoma | SK-OV-3 ovarian | IGROV1 ovarian | OVCAR-3 ovarian
60.7 µM: SNB-75 CNS
> 92.5 µM: HL-60(TB) leukemia
not listed: DMS 114 small cell lung | M19-MEL melanoma
> 100 µM: all other assays above

COc1cc2[nH]c(-c3cccc(N(C)C)c3)cc(=O)c2cc1OC
> 49.1 µM: DMS 114 small cell lung
> 64.6 µM: HCT-15 colon
> 24.6 µM: HL-60(TB) leukemia
> 21.3 µM: SF-539 CNS
> 21.4 µM: SF-295 CNS
9.35 µM: HOP-18 NSCLC
> 60.1 µM: KM12 colon
5.46 µM: KM20L2 colon
> 25.3 µM: NCI-H226 lung
19.1 µM: COLO 205 colon
> 25.9 µM: HT29 colon
17.6 µM: NCI-H522 lung
7.5 µM: HCC-2998 colon
not listed: SNB-75 CNS | SK-MEL-2 melanoma | U251 CNS | RXF 393 renal | CAKI-1 renal | OVCAR-3 ovarian | RXF-631 renal
> 100 µM: all other assays above

COC(=O)c1c(CC#N)cccc1CC#N
not listed: SK-MEL-5 melanoma | SK-MEL-28 melanoma | A498 renal | TK-10 renal | HOP-18 NSCLC | SNB-78 CNS
> 100 µM: all other assays above

N#CC12C3C4CC5C6C4C1C6C(O)(C53)N2Cc1ccccc1 (stereo unspecified)
not listed: M19-MEL melanoma | SNB-78 CNS
> 100 µM: all other assays above

COC(=O)N/N=C/c1oc(-c2cccc([N+](=O)[O-])c2)c(-c2cccc([N+](=O)[O-])c2)c1[N+](=O)[O-]
89.9 µM: MOLT-4 leukemia
78.3 µM: CCRF-CEM leukemia
55.4 µM: HL-60(TB) leukemia
not listed: DMS 114 small cell lung | SNB-75 CNS | SK-MEL-2 melanoma | A498 renal | SF-539 CNS | NCI-H226 lung | MALME-3M melanoma | CAKI-1 renal | SNB-78 CNS | RXF-631 renal
> 100 µM: all other assays above

COC(=O)c1c(C(=O)OC)c2cc(C(=O)c3ccccc3)ccn2c1Cl
50.8 µM: NCI-H522 lung
54.2 µM: HL-60(TB) leukemia
78 µM: CCRF-CEM leukemia
85 µM: RXF 393 renal
88.1 µM: NCI-H23 lung
33.2 µM: SK-MEL-5 melanoma
90.4 µM: DMS 273 small cell lung
72.8 µM: KM12 colon
64.7 µM: NCI-H226 lung
89.8 µM: UO-31 renal
88.4 µM: UACC-62 melanoma
51.7 µM: RPMI-8226 leukemia
66.6 µM: XF 498 CNS
63.1 µM: OVCAR-3 ovarian
85.2 µM: SF-295 CNS
51.5 µM: MOLT-4 leukemia
40.5 µM: SR leukemia
55.4 µM: SNB-75 CNS
89.1 µM: DMS 114 small cell lung
not listed: UACC-257 melanoma | DLD-1 colon | A498 renal | SK-OV-3 ovarian | HOP-92 NSCLC | CAKI-1 renal | HOP-18 NSCLC | RXF-631 renal
> 100 µM: all other assays above
